Test results taken from patent US20180271863A1, “TARGETING P2 PURINERGIC RECEPTORS TO TREAT HEPATOCELLULAR CARCINOMA (HCC)” (Baylor College of Medicine, priority 2015, published 2018).
“Also recorded” adds a separate entry of the source.

Columns and labels:
Assay type in all cases: cell-based, human
[1] = system: Huh7 cells overexpressing P2X3; assay: BrdU incorporation in Huh7 cells transfected with P2X3 or pCMV6 vector
Protocol: Thereafter, these cells were treated with ATP+/-P2X3 antagonist, AF-353. […] Huh7 cells were maintained in MEM with 10% fetal bovine serum (FBS), 5% L-Glutamine and 5% Penicillin-streptomycin overnight. P2X3 or pCMV6 vector control plasmids (1 m) were transfected with Turbofectin 8.00 (Origene Technologies, Rockville, Md.) in MEM with 5% L-Glutamine. Media was […] hours, according to manufacturer's instructions. Formalin-fixed and paraffin embedded liver sections from HCC patients were analyzed by immunohistochemistry with anti-P2X3 antibody (Abcam, Cambridge, Mass.). HCC cells were grown on glass coverslips; BrdU (10 μM, Roche, Indianapolis, Ind.) was added to culture media for 1 h prior to fixation (cold acetone:methanol, 1:1) and stained using anti-BrdU antibody (DAKO, Carpinteria, Calif.) and DAB Peroxidase Substrate Kit (Vector Labs, Burlingame, Calif.), according to manufacturer's instructions. Counterstaining was done with hematoxylin. BrdU positive cells were counted and expressed as a percentage of the total number of cells in ten randomly selected high-power fields (20×) per coverslips.

[2] = system: Huh7 cells; assay: BrdU incorporation (proliferation) in Huh7 cells; details: for BrdU incorporation / BrdU positive nuclei: nucleotide 100 μM
Protocol: To determine whether P2 purinergic receptor activation influences HCC cell proliferation, BrdU incorporation was assessed in HCC cells maintained in SFM for 24 hours and treated with ATP for 24 hours. ATP treatment alone was sufficient to induce proliferation in each of these cell lines (Huh7, 34%; Hep3B, 46%; SNU-387, 47% and PLC/PRF/5, 24%), identifying nucleotides as liver cancer cell mitogens (FIG. 7A).
Extracellular ATP can be hydrolyzed to ADP and adenosine by ectonucleotidases at the plasma membrane. Therefore, Applicants tested the effects of ATPγS (non-hydrolyzable analog of ATP) or ADP (break down product of ATP) (100 μM) on Huh7 cell proliferation. ATPγS treatment alone was sufficient to induce BrdU incorporation as early as 12 hours (42%); maintained at 18 h (30%) and 24 h (29%) in Huh7 cells (FIG. 8). ADP was also able to independently increase the number of BrdU positive nuclei (12 h, 30%; 18 h, 35%; 24 h, 37%) (FIG. 8). Furthermore, ATP treatment (18 h) increased cell proliferation and viability in all four cell lines, as determined by MTT assay (Huh7, 65%; Hep3B, 81%; SNU-387, 90% and PLC/PRF/5, 43%) (FIG. 7B).
(§1) Normal human primary hepatocytes isolated from healthy adults (no known history of HCC) in suspension or freshly-frozen prior to shipment (Cryoport Systems, CA) were purchased from Triangle Research Labs, NC. Fresh hepatocytes were plated on collagen-coated tissue culture plates or glass coverslips in Williams E complete media with additives (10% fetal bovine serum, 2 mM glutamine, […] insulin, 4 ng/ml glucagon, […] transferrin, 2.5 ng/ml sodium selenite, 10,000 U/ml penicillin, […] streptomycin, 50 g/ml gentamycin) for 3 h to ensure hepatocyte adherence to plates. Subsequently, hepatocytes were maintained in Williams E minimal media free from serum and growth factors for 24 h prior to treatment. Human hepatocellular carcinoma derived Huh7, and Hep3B, were cultured in Minimum Essential Medium Eagle (MEM); SNU-387 was cultured in Roswell Park Memorial Institute (RPMI) medium and PLC/PRF/5 cultured in Dulbecco's Modified Eagle's medium (DMEM). All maintenance culture media were supplemented with 10% fetal bovine serum (FBS), L-Glutamine (2 mM), penicillin (100 units/ml) and streptomycin ([…]) at 37° C. and 5% CO2. Cells were maintained in serum free media (containing 2 mM L-Glutamine, 100 units/ml penicillin and ([…])) streptomycin for 24 h prior to treatment.
Formalin-fixed and paraffin embedded liver sections from HCC patients were analyzed by immunohistochemistry with anti-P2X3 antibody (Abcam, Cambridge, Mass.). HCC cells were grown on glass coverslips; BrdU (10 μM, Roche, Indianapolis, Ind.) was added to culture media for 1 h prior to fixation (cold acetone:methanol, 1:1) and stained using anti-BrdU antibody (DAKO, Carpinteria, Calif.) and DAB Peroxidase Substrate Kit (Vector Labs, Burlingame, Calif.), according to manufacturer's instructions. Counterstaining was done with hematoxylin. BrdU positive cells were counted and expressed as a percentage of the total number of cells in ten randomly selected high-power fields (20×) per coverslips.

[3] = system: Huh7 cells; assay: Western blotting of cyclin and CDK proteins in Huh7 cells
Protocol: as §1
Total protein extracts were obtained by homogenizing cells in total lysis buffer (50 mM Tris-HCl, pH 7.5, 0.5 M NaCl, 2 mM EGTA, 2 mM EDTA, 1.0% Triton X-100, 0.25% Deoxycholate, 1 m/ml pepstatin, 1.0 m/ml leupeptin, 1.0 m/ml aprotinin, 1.0 mM phenylmethylsulfonyl fluoride, 1.0 mM Dithiothreitol, 2.0 mM activated Na3VO4, and 2.0 mM NaF) and centrifuging at 14,000 rpm for 10 min (4° C.). Equal amounts of total proteins as determined by BCA protein Assay (Pierce, Rockford, Ill.) were analyzed by Western blotting. Blots were probed with antibody specific for a-tubulin or GAPDH to ensure equal loading of proteins in each lane.

[4] = system: Huh7 cells; assay: Western blotting for survivin in Huh7 cells
Excerpt: Total protein extracts were obtained by homogenizing cells in total lysis buffer and analyzed by Western blotting as described recently (Oncotarget 2015; 6:41162-41179). Next, Applicants tested whether extracellular nucleotide treatment may have an effect on YAP target genes important in hepatocellular carcinoma. […] Moreover, P2X3 antagonist (AF-353) pretreatment attenuated ATP mediated induction of survivin (FIG. 20G).

[5] = transfected Huh7, ATP 100 μM, 24 h
[6] = antagonist alone, serum-free conditions

For `Nc1ncnc2c1ncn2[C@@H]1O[C@H](COP(=O)(O)OP(=O)(O)OP(=O)(O)O)[C@@H](O)[C@H]1O` [ATP], the “ATP mediated proliferation in P2X3-overexpressing cells vs cells transfected with only pCMV6” value [1, 5] was “significantly higher”, the “BrdU incorporation compared to the pCMV6 control” value [1, 5] was “further increased” and the “proliferation (BrdU incorporation) induced by ATP” value ([2]; SFM 24 hours, ATP 24 hours) was 34%. The “cyclin D3 protein expression” value ([3]; ATP 24 hours, serum-free) was 3.2 fold.

For `Nc1ncnc2c1ncn2[C@@H]1O[C@H](COP(=O)(O)OP(=O)(O)OP(O)(O)=S)[C@@H](O)[C@H]1O` [ATPγS], the “BrdU incorporation / BrdU positive nuclei” value ([2]; 12 h) was 42%, the “BrdU incorporation / BrdU positive nuclei” value ([2]; 18 h) was 30% and the “BrdU incorporation / BrdU positive nuclei” value ([2]; 24 h) was 29%. The survivin protein expression ([4]; ATPγS treatment alone) was 1.8 fold, the “cyclin A protein expression” value ([3]; ATPγS 18 h) was 1.7 fold and the “cyclin D3 protein expression” value ([3]; ATPγS 18 h) was 2.7 fold. The “cyclin E protein expression” value ([3]; ATPγS 18 h) was 1.7 fold, the “cyclin A protein expression” value ([3]; ATPγS 24 h) was 1.2 fold and the “cyclin D3 protein expression” value ([3]; ATPγS 24 h) was 2.8 fold. For the same compound, the “cyclin E protein expression” value ([3]; ATPγS 24 h) was 1.3 fold, the CDK2 protein expression ([3]; ATPγS 30 h) was 1.6 fold and the CDK4 protein expression ([3]; ATPγS 30 h) was 1.4 fold. For the same compound, the “cyclin A protein expression” value ([3]; ATPγS 30 h) was 1.2 fold, the “cyclin D3 protein expression” value ([3]; ATPγS 30 h) was 2.1 fold and the “cyclin E protein expression” value ([3]; ATPγS 30 h) was 2.2 fold.

For `COc1cc(C(C)C)c(Oc2cnc(N)nc2N)cc1I` [AF-353], the “effect on P2X3 mediated increase in proliferation (BrdU)” value ([1]; P2X3-overexpressing Huh7, AF-353 5 μM, 24 h) was “completely attenuated”, the “effect on ATP mediated increase in BrdU incorporation” value ([1]; transfected Huh7, AF-353 5 μM pre-treatment, ATP 100 μM 24 h) was “significantly attenuated” and the “effect on ATP-mediated increase in BrdU incorporation” value ([2]; AF-353 5 μM pre-treatment, ATP 100 μM 24 hr) was “completely abolished; also recorded: attenuates”. For the same compound, the “effect on baseline BrdU-positive cells” value [2, 6] was “reduce”, the “effect on ATP mediated induction of survivin” value ([4]; AF-353 pretreatment) was “attenuated” and the “effect on ATP-mediated induction of cyclin D3 and cyclin E expression” value ([3]; AF-353 5 μM pre-treatment, ATP 24 h) was “completely attenuated”. The “effect on baseline cyclin protein expression” value [3, 6] was “reduce”.
